Legend:
human NPT2b = molecular target: T1, human NPT2b (Homo sapiens, UniProt O95436); test: 33P-phosphate uptake in CHO cells expressing human NPT2b; assay type: cell-based; settings: geometric mean; 2.5 µM phosphate, 60 min, room temperature
T1 construct: Full-Length cDNA Cloning and Generation of Cell Lines Over-Expressing Human, Mouse, and Rat NPT2b; host or cells: CHO-K1 / T-REx CHO, pcDNA5/TO, tetracycline-induced
T1 sequence (O95436 1-690): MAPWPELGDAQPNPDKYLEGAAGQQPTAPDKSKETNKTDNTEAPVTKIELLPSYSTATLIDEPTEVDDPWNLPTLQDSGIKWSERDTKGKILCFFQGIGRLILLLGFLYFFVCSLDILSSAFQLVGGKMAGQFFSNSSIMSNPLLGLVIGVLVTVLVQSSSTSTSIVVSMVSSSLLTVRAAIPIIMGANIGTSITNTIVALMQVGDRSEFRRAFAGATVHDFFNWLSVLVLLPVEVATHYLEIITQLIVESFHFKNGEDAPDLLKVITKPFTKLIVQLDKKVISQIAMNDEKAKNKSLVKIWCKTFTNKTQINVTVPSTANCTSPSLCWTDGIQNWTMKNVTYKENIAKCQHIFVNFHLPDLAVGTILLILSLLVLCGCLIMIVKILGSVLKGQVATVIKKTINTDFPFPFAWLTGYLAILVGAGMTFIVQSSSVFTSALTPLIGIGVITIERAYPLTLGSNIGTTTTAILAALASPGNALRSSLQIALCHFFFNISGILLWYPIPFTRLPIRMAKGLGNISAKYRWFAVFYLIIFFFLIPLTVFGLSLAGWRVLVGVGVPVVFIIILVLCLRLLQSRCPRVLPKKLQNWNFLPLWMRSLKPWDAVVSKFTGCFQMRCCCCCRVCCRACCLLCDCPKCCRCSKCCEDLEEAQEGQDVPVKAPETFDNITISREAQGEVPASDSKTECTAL
Experimental: (§1) T‐Rex™ Chinese Hamster Ovary cells (CHO; Thermo Fisher Scientific) stably expressing human, mouse, or rat NPT2b under a tetracycline‐inducible promoter were generated using standard cDNA transfection and clone selection procedures (see Supporting Information). Cells were plated in 96‐well CytoStar‐T® scintillating microplates and were incubated overnight in growth media plus 100 ng/ml of tetracycline to induce expression of NPT2b. The next day, cells were washed 3 times with 200 µl assay buffer (137 mM NaCl, 5.4 mM KCl, 2.8 mM CaCl2, 1.2 mM MgSO4, and 14 mM Tris‐HCl buffer, pH 7.5). LY3358966 serially diluted 1‐to‐3 in DMSO was added to cells with assay buffer. An equal volume of H3 ^33PO4 (PerkinElmer) in assay buffer supplemented with 5 µM potassium phosphate was then added to initiate radiolabeled phosphate (^33P‐phosphate) uptake. The final phosphate concentration was 2.5 µM and the final DMSO concentration was 1%. Following a 60‐min incubation at room temperature, an equal volume of assay buffer containing 400 µM phloretin was added to stop ^33P‐phosphate uptake. The plate was immediately read on a Wallac MicroBeta Trilux liquid scintillation counter. Percent inhibition at all concentrations tested was calculated, and IC50 values were then determined using a 4‐parameter logistic curve fitting equation.
(§2) The vendors for target cDNA are listed in supplemental Table 1. […]

mouse NPT2b = molecular target: T2, mouse NPT2b (Mus musculus, UniProt Q9DBP0); test: 33P-phosphate uptake in CHO cells expressing mouse NPT2b; assay type: cell-based; settings: geometric mean; 2.5 µM phosphate, 60 min, room temperature
T2 construct: Full-Length cDNA Cloning and Generation of Cell Lines Over-Expressing Human, Mouse, and Rat NPT2b; host or cells: CHO-K1 / T-REx CHO, pcDNA5/TO, tetracycline-induced
T2 sequence (Q9DBP0 1-697): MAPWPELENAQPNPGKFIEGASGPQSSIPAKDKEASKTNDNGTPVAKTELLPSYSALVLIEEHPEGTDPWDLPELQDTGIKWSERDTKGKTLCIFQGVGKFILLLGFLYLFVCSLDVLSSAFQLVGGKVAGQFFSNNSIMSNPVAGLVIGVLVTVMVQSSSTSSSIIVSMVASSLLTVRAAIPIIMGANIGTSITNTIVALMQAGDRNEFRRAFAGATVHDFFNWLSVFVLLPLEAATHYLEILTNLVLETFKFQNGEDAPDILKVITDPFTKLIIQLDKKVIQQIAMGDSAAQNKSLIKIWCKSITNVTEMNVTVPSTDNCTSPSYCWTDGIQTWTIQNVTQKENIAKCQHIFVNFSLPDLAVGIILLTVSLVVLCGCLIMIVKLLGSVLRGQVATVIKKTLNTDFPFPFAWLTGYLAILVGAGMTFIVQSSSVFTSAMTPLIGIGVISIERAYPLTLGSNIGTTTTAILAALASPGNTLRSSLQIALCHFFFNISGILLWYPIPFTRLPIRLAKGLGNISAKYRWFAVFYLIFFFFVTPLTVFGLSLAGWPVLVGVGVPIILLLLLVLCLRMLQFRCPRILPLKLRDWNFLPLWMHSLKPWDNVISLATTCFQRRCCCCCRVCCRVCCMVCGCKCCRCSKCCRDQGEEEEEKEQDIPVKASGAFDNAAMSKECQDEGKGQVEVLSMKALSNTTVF
Experimental: as §1, §2

CC1(C)CN(C(=O)NCCCCO)CCN1Cc1cccc(C(=O)Nc2sc3c(c2C(=O)Nc2cc(F)c(CCc4ccc(C(=O)O)cc4)c(F)c2)CCCC3)c1 [LY3358966, 4‐[2‐[2,6‐difluoro‐4‐[[2‐[[3‐[[4‐(4‐hydroxybutylcarbamoyl)‐2,2‐dimethyl‐piperazin‐1‐yl]methyl]benzoyl]amino]‐4,5,6,7‐tetrahydrobenzothiophene‐3‐carbonyl]amino]phenyl]ethyl]benzoic acid] was tested, and the IC50 (human NPT2b) was 32.4 nM and the IC50 (mouse NPT2b) was 43.9 nM.

From PMC8863579, “Effects of pharmacological inhibition of the sodium‐dependent phosphate cotransporter 2b (NPT2b) on intestinal phosphate absorption in mouse and rat models” (Pharmacology Research & Perspectives, 2022)
